Experimental findings from PubChem BioAssay AID504455 (Sanford-Burnham Center for Chemical Genomics, 2011) are described below.

Active and inactive are the calls of the source.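 How the source made its calls: active means compounds whose mean IC50 is below 20 µM; inactive means the rest.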

The target in this experiment is Apelin receptor (Homo sapiens) (UniProt P35414). Kind of experiment: APJ receptor antagonists, beta-arrestin recruitment, SAR follow-up, cell-based, CHO-K1 AGTRL-1, PathHunter luminescence, set 6 (AID 504455). The conditions noted are these: apelin-13 antagonism.

Usually IC50 stands for the point on the concentration scale where inhibition reaches its midpoint.

Apelin receptor (Homo sapiens), sequence (P35414 whole entry, looked up): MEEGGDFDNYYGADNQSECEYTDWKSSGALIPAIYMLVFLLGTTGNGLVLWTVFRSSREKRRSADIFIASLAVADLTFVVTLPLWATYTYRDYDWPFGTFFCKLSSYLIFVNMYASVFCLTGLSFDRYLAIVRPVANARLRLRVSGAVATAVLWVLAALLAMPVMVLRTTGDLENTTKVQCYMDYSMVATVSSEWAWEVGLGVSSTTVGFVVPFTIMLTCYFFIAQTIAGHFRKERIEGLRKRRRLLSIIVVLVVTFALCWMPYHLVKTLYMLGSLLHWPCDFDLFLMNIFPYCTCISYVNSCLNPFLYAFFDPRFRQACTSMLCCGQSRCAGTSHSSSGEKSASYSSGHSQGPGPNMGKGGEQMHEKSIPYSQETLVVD

Consider `N#Cc1ccc(C(=O)Oc2coc(CSc3ncccn3)cc2=O)cc1`, for which the IC50 was 9.77 µM.

With `Cc1ccc(C(=O)Oc2coc(CSc3ncccn3)cc2=O)cc1[N+](=O)[O-]`, the IC50 was 10.9 µM.

Consider `Cc1ccnc(SCc2cc(=O)c(OC(=O)c3ccc([N+](=O)[O-])cc3)co2)n1`, for which the IC50 is 3.11 µM.

In the case of `Cc1ccnc(SCc2cc(=O)c(OC(=O)c3ccccc3)co2)n1`, the IC50 was > 79 µM (inactive).

As to `Cc1ccnc(SCc2cc(=O)c(OC(=O)c3ccc(C#N)cc3)co2)n1`, the half-maximal inhibitory concentration (IC50) was 11.5 µM.
